Where two headings read alike, the source gives them in different places. No end group written: not given here.
Tests used:
[1] = tested on: BHK-21 cells; experiment: MTT cytotoxicity, BHK-21 cells; type: cell-based, hamster; details: 24 h peptide treatment, 3-200 µM, 37 °C, absorbance 570 nm, nonlinear regression, at least three independent experiments
Procedure: (§1) BHK-21, U-87 MG, A-72, and CRFK cells were seeded in 96-well plates at an initial density of 2 × 10^4 cells per well and incubated for 24 h at 37 °C. Then, serial dilutions of peptides ranging from 3 to 200 µM were added to the cell monolayer and incubated for 24 h at 37 °C. Cytotoxicity was evaluated by adding 5 μL of methylthiazolyldiphenyl-tetrazolium bromide (MTT; cod. M2003, Sigma-Aldrich, St. Louis, MO, USA) to each well. After 4 h of incubation, the plate was emptied, and formazan crystals were solubilized with dimethyl sulfoxide (DMSO; 100%). Cell viability was calculated by measuring absorbance at 570 nm using a microplate reader. The negative control (CTRL−, toxicity control) consisted of cells treated with DMSO, while the positive control (CTRL+, viable cells) included untreated cells.
(§2) All tests were performed in triplicate and expressed as mean ± standard deviation (SD). Graphs and statistical analysis were generated using GraphPad Prism version 9.5.1 for macOS (GraphPad Software, San Diego, CA, USA, www.graphpad.com, accessed on 5 February 2025). The 50% cytotoxic concentration (CC50) and the 50% inhibitory concentration (IC50) were calculated by nonlinear regression analysis based on dose–response curves generated from at least three independent experiments.

[2] = tested on: A-72 cells; experiment: MTT cytotoxicity, A-72 cells; type: cell-based, canine; details: 24 h peptide treatment, 3-200 µM, 37 °C, absorbance 570 nm, nonlinear regression, at least three independent experiments
Procedure: as §1, §2

[3] = tested on: CRFK cells; experiment: MTT cytotoxicity, CRFK cells; type: cell-based, feline; details: 24 h peptide treatment, 3-200 µM, 37 °C, absorbance 570 nm, nonlinear regression, at least three independent experiments
Procedure: as §1, §2

[4] = tested on: U-87 MG cells; experiment: MTT cytotoxicity, U-87 MG cells; type: cell-based, human; details: 24 h peptide treatment, 3-200 µM, 37 °C, absorbance 570 nm, nonlinear regression, at least three independent experiments
Procedure: as §1, §2

[5] = tested on: BHK-21, A-72, CRFK, and U-87 MG cells; experiment: MTT cytotoxicity, statements for all tested cell lines; type: cell-based; details: 24 h, concentrations of 50 μM and below
Procedure: as §1

[6] = tested on: SBV; details: 1 h
[7] = tested on: TOSV; details: 24 h
[8] = tested on: TOSV; details: 24 h; remark: listed apart in the source
[9] = tested on: TOSV; details: 24 h; remark: listed apart in the source
[10] = tested on: SBV; details: 48 h
[11] = tested on: SBV; details: 48 h; remark: listed apart in the source

Substance IFGAIWKGISSLL-NH2 [pantinin-2] has a CC50 [1] of 100.8 µM, a CC50 [2] of 90.7 µM and a CC50 [3] of 82.2 µM. The CC50 [4] was 82 µM, the “Cytotoxicity at 50 μM and below” value [5] was “neither pantinin-1 nor pantinin-2 induced any detectable cytotoxicity” and the IC50 [6] was 4.8 µM. For the same substance, the IC50 [7] was 3000 nM, the IC50 [8] was 3000 nM and the IC50 [9] was 3000 nM.
Substance GILGKLWEGFKSIV-NH2 [pantinin-1] has a CC50 [1] of 136.6 µM, a CC50 [2] of 93.6 µM and a CC50 [3] of 93.5 µM. For the same substance, the CC50 [4] was 114.3 µM, the “Cytotoxicity at 50 μM and below” value [5] was “neither pantinin-1 nor pantinin-2 induced any detectable cytotoxicity” and the IC50 [6] was 12.8 µM. For the same substance, the IC50 [10] was 6 µM and the IC50 [11] was 5.8 µM.

From paper PMC12300298, “Expanding the Antiviral Spectrum of Scorpion-Derived Peptides Against Toscana Virus and Schmallenberg Virus” (Pathogens, 2025)
